Laboratory results from ChEMBL document CHEMBL1166004, “Microbial transformations of the taxan ring of 10-DAB by some strains of the fungus Curvularia lunata: formation of the bis-abeotaxanes wallifoliol and 4-deacylwallifoliol” (J Nat Prod, 2010).

System: NCI-H460
Experiment: Cytotoxicity against human H460 cells
Assay type: functional, cell-based

SMILES | IC50 [µM]
CC1=C2[C@]3(O)C(=O)OC(C)(C)[C@]2(C[C@@H]1O)[C@@H](OC(=O)c1ccccc1)[C@@H]1[C@]2(O)CO[C@@H]2C[C@H](O)[C@]13C | 103
CC(=O)O[C@@]12CO[C@@H]1C[C@H](O)[C@]1(C)[C@@H]2[C@H](OC(=O)c2ccccc2)[C@]23C[C@H](O)C(C)=C2[C@@]1(O)C(=O)OC3(C)C [WALLIFOLIOL] | 68
